pIC50: −log10 of the molar value.
What was measured:
[1] = biological target: T1, DYRK1A catalytic domain (DYRK1A-ΔC) (Rattus norvegicus, UniProt Q63470); experiment: In vitro DYRK1A kinase inhibition, UFLC assay with fluorescent peptide substrate; type: biochemical; settings: IC50, in vitro inhibition of DYRK1A, 3,5-diaryl-7-azaindoles 5a-5g, Fig. 5
T1 construct: The cDNA coding for the catalytic domain (residues 1-502) of rat DYRK1A; 6xHis; made in house; host or cells: E. coli BL21(DE3), pET28

Ts65Dn mice = experiment: Morris water maze spatial learning in Ts65Dn and WT mice; type: in vivo
From the text: Ts65Dn mice, the best-characterized and most widely used mouse model of DS, are trisomic for a segment of chromosome 16 extending between genes Mrp139 and Znf295 and containing approximately 92 orthologues of human chromosome 21 genes[42] including the Dyrk1a gene. […] Mice were trained for a total of 5 days to learn a fixed spatial goal location in the maze. […] In this paradigm, learning occurred when mice succeeded in decreasing their traveled distances after repeated training trials.
Male Ts65Dn (n = 8) mice and euploid wild-type (WT) littermates (n = 10) were purchased from the Jackson Laboratory (Bar Harbor, Maine, USA). As the recessive retinal degeneration 1 mutation Pde6brd1 in the original Ts65Dn mice causes blindness in homozygotes, we used an alternative strain (SN 5252) that is wild-type for Pde6b, thereby preventing retinal degeneration. Housing conditions comprised a standard cage (air-controlled system) with ad libitum food and water and a 12 h light/dark cycle. Mice received at least one week of habituation to the animal facility, followed by three days of handling (three minutes per mouse per day). […] Treatment was continued during the MWM protocol (mice being injected 30 min before each daily session).
Vehicle consisted of an identical composition without compound 5a.
A white pool with a diameter of 150 cm was filled with water made opaque with non-toxic white paint (Acusol OP301, Rohm and Haas Company, Landskrone, Sweden) and kept at a constant temperature (20–21.5 °C). A 9-cm diameter platform was placed in the south-east (SE) quadrant of the pool, 1 cm under the water surface. The light intensity in the experimental room was kept constant at 70 Lux. Mice were habituated to the room for at least 30 min before starting each daily session. The acquisition phase comprised 5 days of training, four trials per day with an inter-trial interval of at least 20 min to minimize motor fatigue. The order of release positions in the pool was pseudo-randomly at the four cardinal points and changed every day to maximize spatial allocentric training and formation of a “cognitive map”. Each trial ended as soon as the mouse found the platform or after a maximum of 90 s, after which the animal was gently manually guided to the platform. Mice were left on the platform for 20 s before they were gently dried with a towel and individually placed in a cage with paper towels for further drying. The animals returned to their homecage after 5 min.
ANY-maze Video Tracking System (Stoelting, USA) was used to record all trials. Calculated measures included 1) thigmotaxis (percent distance traveled in the 10 cm wide peripheral annulus of the pool) indicative of unsuccessful spatial strategy to locate the platform and 2) the Corrected Integrated Pathway Length (CIPL) an unbiased measure of distance-to-platform travelled taking into account the animal’s speed and the initial distance from the goal for each starting position.

[2] = Bioavailability in plasma after i.p. injection (UHPLC-MS/MS); type: in vivo; settings: mouse, ip, WT mice, 20 mg/kg i.p.
Description: Before undertaking behavioral studies in Ts65Dn mice, the bioavailability of F-DANDY 5a in plasma after peripheral (intraperitoneal – i.p.) injection in mice was determined. […] The sample preparation and analytical protocol were adapted from Bonneau et al.[38],[39]. […] A 30 min interval was thus selected between time of injection and behavioral assessment.
All plasma and brain homogenate extracts were analyzed by an ultra-high performance liquid chromatography (UHPLC) system coupled to a triple-quadrupole mass spectrometer (Dionex Ultimate 3000 RSLC system coupled to a TSQ Vantage EMR, Thermo Scientific, Les Ulis, France). UHPLC separation was performed using a C18 column (HSS T3, 2.1 mm × 150 mm, 1.7 μm, Waters, Guyancourt, France) equipped with a guard column (HSS T3, 2.1 mm × 5 mm, 1.7 μm, Waters, Guyancourt, France) and maintained at 40 °C. The mobile phases were water, 0.1% formic acid (A) and acetonitrile (B). […] A washing step in acetonitrile/isopropanol was added to limit carryover problems. Injection volume was 4 µL and the autosampler was maintained at 6 °C. Ionization was performed with a heated electrospray ionization source in positive mode. The source parameters were set as follows: spray voltage 3350 V, vaporizer temperature 250 °C, sheath gas (N2) pressure 55 psi, auxiliary gas pressure (N2) 25 psi, capillary temperature 350 °C. Analysis was performed under the Selected Reaction Monitoring (SRM) mode using several transitions for each compound at optimized collision energies (see Table SI2 and Figure SI1). […] Data acquisition was performed using ThermoScientific Xcalibur 2.1 software system. All samples were analyzed in triplicate.
Two compounds, V[34] […] Limit of quantification (LOQ) was determined as the lowest point of the calibration curve at 1.6 pg/μL. […] Limit of quantification (LOQ) was determined as the lowest point of the calibration curve at 1.6 pg/mg. […]
Using an optimized Ultra Performance Liquid Chromatography with tandem mass spectrometry (UPLC-MS/MS), compound 5a was subsequently quantified in plasma. […] All samples were analyzed in triplicate.

## Oc1ccc(-c2cnc3[nH]cc(-c4ccc(F)cc4)c3c2)cc1O [Compound 5a, 3-(4-fluorophenyl)-5-(3,4-dihydroxyphenyl)-1H-pyrrolo[2,3-b]pyridine]
[1]
  pIC50: 7.68
Ts65Dn mice; Ts65Dn mice, 20 mg/kg i.p.
  change of thigmotaxis between vehicle and 5a conditions: −12.9%
Ts65Dn mice; Ts65Dn mice, 20 mg/kg i.p. daily, vs vehicle, p < 0.05
  spatial learning performance (CIPL) in Morris water maze: significant improvement of performance
Ts65Dn mice; Ts65Dn mice, 20 mg/kg i.p., comparison with 5a-treated WT mice p > 0.99
  swim speed in Morris water maze: restored normal swim speed
Ts65Dn mice; WT mice, 20 mg/kg i.p.
  change of thigmotaxis between vehicle and 5a conditions: −6.5%
Ts65Dn mice; wild type mice, 20 mg/kg i.p. daily, vs vehicle
  effect on Morris water maze performance: no observable effect
[2]; after slow decrease over 2.5 hours, read-out: plasma level
  concentration at 2.5 h: ~50 ng/mL
[2]; t = 4.4 min
  concentration at 4.4 min: 312 ng/mL
[2]; t = 5.4 min
  concentration at 5.4 min: 236 ng/mL

From publication PMC5809559, “DYRK1A inhibition and cognitive rescue in a Down syndrome mouse model are induced by new fluoro-DANDY derivatives” (Scientific Reports, 2018)
